The values that follow come from patent US11987564B2, “PTPRD inhibitors and uses thereof” (United States Government as represented by the Department …, priority 2021, dated 2024).

In series [1] the target is T1, PTPRJ (Homo sapiens, UniProt Q12913).
T1 construct: purchased
T1 sequence (Q12913 36-1337): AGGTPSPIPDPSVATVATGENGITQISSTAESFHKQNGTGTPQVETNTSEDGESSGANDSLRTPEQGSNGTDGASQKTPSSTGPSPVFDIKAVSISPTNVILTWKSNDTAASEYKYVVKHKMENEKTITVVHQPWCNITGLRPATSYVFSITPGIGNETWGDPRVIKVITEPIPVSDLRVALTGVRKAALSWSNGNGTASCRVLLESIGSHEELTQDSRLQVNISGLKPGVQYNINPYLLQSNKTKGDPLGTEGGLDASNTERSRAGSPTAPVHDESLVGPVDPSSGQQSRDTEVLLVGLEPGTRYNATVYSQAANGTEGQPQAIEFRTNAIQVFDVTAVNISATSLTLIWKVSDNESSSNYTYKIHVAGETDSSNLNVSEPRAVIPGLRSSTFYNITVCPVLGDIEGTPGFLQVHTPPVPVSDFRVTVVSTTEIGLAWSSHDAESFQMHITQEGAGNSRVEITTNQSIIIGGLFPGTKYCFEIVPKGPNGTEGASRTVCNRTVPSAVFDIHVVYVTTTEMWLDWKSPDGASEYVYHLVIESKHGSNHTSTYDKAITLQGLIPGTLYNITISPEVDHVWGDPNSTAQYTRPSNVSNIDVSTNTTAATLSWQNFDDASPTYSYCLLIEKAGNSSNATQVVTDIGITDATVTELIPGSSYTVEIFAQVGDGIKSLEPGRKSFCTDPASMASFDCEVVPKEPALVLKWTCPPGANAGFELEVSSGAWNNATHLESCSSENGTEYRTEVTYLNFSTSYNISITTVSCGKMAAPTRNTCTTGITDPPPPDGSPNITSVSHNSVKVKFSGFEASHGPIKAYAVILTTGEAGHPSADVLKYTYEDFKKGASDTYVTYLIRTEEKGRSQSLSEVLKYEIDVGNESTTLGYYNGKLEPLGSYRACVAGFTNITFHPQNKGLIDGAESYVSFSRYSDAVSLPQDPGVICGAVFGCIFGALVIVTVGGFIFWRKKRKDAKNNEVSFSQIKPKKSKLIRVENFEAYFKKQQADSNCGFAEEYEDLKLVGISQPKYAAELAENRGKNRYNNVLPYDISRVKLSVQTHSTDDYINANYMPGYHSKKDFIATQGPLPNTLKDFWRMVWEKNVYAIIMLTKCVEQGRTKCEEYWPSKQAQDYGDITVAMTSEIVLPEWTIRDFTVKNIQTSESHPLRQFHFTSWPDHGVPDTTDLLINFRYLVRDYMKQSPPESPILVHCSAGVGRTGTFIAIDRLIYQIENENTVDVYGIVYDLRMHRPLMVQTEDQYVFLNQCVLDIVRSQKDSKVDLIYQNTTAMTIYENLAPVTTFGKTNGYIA
The series can be described thus: pNPP hydrolysis by PTPRJ phosphatase. It is filed as biochemical. The text has this: (§1) Human […] ([…]-pY-[…]) phosphopeptide (Pierce/ThermoFisher) were synthesized.

Series [2] deals with recombinant PTPRD (Homo sapiens, UniProt P23468). The series can be described thus: pNPP hydrolysis by recombinant PTPRD phosphatase.
Description: (§2) Phosphatase assays: Data for each assay type (3 wells/experimental condition, read using a Spectromax plate reader) was plotted vs time, and results derived from the slopes of linear regions were reported from triplicate independent experiments.
(§3) For assays of compound ligands that were likely pseudo-irreversible, 18 min preincubations were also added. For work determining the effect of flavonoids on pNPP hydrolysis, a 96 well half-area plate was prepared by first filling each well to be tested with 18 μL of 50 μM pNPP and 25 uL of running buffer, and 2 μL of DMSO containing the desired concentration of flavonoid and/or peptide. PTPRD phosphatase was diluted 1:50 in a dilution buffer.
Series [3] deals with PTPRF (Homo sapiens, UniProt P10586). The series is described as follows: pNPP hydrolysis by recombinant PTPRF phosphatase.
Description: as §2, §3
Series [4] addresses PTPRS (Homo sapiens, UniProt Q13332). The series can be described thus: pNPP hydrolysis by recombinant PTPRS phosphatase. It is filed as biochemical.
Description: as §1

Series [5] concerns the target T2, PTPN1 (PTP1B) (Homo sapiens, UniProt P18031).
T2 construct: purchased
T2 sequence (P18031 1-435): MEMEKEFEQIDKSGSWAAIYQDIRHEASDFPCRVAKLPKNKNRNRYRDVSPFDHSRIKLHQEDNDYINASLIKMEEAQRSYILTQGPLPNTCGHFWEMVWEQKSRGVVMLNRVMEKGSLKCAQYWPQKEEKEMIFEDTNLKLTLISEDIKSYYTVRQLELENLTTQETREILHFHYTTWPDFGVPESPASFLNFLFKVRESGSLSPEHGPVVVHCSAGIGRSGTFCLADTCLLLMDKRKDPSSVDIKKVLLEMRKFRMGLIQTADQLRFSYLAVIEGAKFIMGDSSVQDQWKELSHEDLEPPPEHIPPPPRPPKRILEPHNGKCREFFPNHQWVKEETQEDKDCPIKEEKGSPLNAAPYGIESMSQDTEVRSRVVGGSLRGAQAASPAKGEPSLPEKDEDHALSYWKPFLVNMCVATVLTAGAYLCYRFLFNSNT
The series is described as follows: pNPP hydrolysis by PTPN1 (PTP1B) phosphatase. It is filed as biochemical. The note with it: untitled table after Table 4; mean, SEM in wrapped line.

Series [6] has as its system wildtype C57BL/6J or PTPRD knockout mice.
Where [7] appears, read: untitled table after Table 4, mean, SEM in wrapped line.
The mark [8] stands for this setting: PTPRD IC50, Table 4, mean (SEM) of three independent experiments, * = instability, no valid triplicate.
Setting [9] is: PTPRD IC50, untitled table after Table 4, mean, SEM in wrapped line, compounds with PTPRD IC50 <5 μM.
[10] abbreviates: PTPRF IC50, untitled table after Table 4, mean, SEM in wrapped line.
Where [11] appears, read: Table 4, mean (SEM) of three independent experiments, * = instability, no valid triplicate.
Setting [12] is: PTPRF IC50, Table 4, mean (SEM) of three independent experiments, * = instability, no valid triplicate.

recombinant PTPRD, sequence (P23468 21-1912): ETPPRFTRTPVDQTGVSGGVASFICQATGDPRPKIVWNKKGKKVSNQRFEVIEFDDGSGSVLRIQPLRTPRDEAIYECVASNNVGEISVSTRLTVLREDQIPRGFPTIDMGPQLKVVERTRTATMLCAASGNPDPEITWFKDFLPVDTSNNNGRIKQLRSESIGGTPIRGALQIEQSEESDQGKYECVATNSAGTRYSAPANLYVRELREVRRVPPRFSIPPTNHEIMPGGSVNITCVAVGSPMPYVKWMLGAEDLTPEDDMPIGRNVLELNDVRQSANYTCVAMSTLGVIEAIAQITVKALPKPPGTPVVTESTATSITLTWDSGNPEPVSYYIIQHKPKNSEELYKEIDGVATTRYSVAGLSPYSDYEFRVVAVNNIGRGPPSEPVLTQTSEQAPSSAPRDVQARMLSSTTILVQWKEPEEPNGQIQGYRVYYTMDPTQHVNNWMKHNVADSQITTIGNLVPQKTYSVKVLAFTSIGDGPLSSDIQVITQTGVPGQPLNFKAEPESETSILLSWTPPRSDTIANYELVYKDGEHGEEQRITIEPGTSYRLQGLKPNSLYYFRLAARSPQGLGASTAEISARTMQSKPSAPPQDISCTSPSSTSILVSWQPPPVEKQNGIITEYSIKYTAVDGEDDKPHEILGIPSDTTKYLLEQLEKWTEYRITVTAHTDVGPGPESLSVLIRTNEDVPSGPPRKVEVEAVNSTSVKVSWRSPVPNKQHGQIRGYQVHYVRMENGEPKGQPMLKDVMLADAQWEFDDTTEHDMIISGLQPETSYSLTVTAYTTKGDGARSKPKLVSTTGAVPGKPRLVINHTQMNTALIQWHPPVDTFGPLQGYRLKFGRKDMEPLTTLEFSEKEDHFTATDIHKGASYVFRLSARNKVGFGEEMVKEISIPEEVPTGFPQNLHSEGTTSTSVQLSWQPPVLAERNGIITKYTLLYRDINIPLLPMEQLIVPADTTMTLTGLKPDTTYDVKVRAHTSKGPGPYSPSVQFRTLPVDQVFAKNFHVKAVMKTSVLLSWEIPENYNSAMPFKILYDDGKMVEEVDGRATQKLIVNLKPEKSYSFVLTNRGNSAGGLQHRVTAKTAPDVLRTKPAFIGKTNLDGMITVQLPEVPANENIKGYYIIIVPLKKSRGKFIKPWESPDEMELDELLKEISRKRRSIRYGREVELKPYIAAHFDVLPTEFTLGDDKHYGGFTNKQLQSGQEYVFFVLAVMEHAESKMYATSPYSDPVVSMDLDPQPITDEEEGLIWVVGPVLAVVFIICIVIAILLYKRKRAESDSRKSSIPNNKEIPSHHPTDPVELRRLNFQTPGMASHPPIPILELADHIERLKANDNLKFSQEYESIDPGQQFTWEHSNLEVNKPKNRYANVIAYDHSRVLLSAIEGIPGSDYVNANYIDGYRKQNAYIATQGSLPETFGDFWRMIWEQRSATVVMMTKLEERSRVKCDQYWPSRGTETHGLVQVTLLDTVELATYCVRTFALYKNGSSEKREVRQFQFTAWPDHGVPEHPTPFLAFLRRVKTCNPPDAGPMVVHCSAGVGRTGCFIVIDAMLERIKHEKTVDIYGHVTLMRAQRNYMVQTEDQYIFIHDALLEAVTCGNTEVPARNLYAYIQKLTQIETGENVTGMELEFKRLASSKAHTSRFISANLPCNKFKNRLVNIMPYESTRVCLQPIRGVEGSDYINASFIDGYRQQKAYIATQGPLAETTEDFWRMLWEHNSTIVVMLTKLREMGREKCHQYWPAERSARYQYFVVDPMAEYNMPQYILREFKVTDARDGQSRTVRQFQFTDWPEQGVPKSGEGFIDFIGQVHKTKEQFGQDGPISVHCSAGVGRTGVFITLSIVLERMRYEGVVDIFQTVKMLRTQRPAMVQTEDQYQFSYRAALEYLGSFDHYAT
PTPRF, sequence (P10586 30-1907, species assumed): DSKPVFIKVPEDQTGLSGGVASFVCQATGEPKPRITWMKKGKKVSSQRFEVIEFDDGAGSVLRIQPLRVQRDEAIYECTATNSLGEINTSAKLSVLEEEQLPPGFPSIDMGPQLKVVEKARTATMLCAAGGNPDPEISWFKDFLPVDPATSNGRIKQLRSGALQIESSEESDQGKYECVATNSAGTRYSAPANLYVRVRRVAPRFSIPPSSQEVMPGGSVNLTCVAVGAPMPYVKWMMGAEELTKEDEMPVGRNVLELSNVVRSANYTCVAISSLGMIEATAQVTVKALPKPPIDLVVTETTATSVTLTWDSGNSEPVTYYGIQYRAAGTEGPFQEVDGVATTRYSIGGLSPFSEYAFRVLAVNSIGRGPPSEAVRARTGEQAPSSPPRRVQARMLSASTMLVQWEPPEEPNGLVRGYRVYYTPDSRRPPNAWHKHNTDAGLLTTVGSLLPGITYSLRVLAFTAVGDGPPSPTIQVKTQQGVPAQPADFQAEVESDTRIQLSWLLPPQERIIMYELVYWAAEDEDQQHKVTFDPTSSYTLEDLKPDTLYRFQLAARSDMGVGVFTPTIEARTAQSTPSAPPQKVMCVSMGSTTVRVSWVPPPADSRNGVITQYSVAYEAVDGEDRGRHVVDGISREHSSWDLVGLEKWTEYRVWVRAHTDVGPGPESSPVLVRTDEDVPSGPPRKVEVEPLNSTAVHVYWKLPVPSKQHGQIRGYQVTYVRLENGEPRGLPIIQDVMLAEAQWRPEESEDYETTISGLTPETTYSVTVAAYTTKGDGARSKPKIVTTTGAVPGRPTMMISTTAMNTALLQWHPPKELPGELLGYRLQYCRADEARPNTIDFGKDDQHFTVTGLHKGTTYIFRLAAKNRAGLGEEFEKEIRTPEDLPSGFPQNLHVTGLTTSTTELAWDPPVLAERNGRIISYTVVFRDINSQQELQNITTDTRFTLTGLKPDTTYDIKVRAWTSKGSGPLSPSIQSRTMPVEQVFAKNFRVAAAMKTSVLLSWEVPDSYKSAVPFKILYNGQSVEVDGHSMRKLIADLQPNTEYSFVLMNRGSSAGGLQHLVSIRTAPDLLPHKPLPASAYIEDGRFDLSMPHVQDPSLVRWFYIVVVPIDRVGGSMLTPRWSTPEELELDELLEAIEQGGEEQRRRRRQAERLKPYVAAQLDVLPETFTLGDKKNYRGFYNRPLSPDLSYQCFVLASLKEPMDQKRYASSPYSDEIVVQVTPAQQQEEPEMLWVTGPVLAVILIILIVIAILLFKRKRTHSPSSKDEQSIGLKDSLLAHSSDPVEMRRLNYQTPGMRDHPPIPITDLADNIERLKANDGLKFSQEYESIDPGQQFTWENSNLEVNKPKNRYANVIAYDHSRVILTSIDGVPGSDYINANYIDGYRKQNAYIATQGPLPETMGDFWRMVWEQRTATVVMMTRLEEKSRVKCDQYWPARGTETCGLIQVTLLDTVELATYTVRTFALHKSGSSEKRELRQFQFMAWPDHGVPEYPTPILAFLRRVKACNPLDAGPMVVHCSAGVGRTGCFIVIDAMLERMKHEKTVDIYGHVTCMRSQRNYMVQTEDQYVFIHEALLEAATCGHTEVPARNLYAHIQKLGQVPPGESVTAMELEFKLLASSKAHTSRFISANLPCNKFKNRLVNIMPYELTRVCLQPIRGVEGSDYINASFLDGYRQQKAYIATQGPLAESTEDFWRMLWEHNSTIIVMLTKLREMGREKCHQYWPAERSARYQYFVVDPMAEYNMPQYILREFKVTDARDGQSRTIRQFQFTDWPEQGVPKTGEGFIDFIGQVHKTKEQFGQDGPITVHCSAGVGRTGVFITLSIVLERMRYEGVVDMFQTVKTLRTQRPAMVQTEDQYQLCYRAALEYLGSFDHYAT

For the molecule `COc1cccc(COc2cc3c(c(C=O)c2OC)CC(O)OC3=O)c1` (centres unmarked) [Compound 31, 3-Hydroxy-6-methoxy-7-((3-methoxybenzyl)oxy)-1-oxoisochromane-5-carbaldehyde], the 50% inhibitory concentration (IC50) in series [1] (setting [7]) was determined as 62.8 µM; in series [2] (setting [8]), 4.12 µM; in series [2] (setting [9]), 5.64 µM; in series [3] (setting [10]), 5.73 µM; in series [4] (setting [11]), 13 µM; in series [4] (setting [7]), 3.25 µM. Moreover, the IC50 in series [5] is 203 µM.
Turning to `COc1c(OCc2ccc(Oc3ccccc3)cc2)cc2c(c1C=O)CC(O)OC2=O` (centres unmarked) [Compound 43, 3-Hydroxy-6-methoxy-1-oxo-7-((4-phenoxybenzyl)oxy)isochromane-5-carbaldehyde], the IC50 was 28.4 µM in series [1] (setting [11]); 28.4 µM in series [1] (setting [7]); 1.6 µM in series [2] (setting [8]); 1.6 µM in series [2] (setting [9]); 3.93 µM in series [3] (setting [12]); 3.93 µM in series [3] (setting [10]). The IC50 in series [4] (setting [11]) came to 1.34 µM; in series [4] (setting [7]), 1.34 µM; in series [5], 16.7 µM.
Consider `COc1c(OCCCCc2ccc(O)cc2O)cc2c(c1C=O)CC(O)OC2=O` (centres unmarked) [Compound 55], for which the IC50 in series [1] (setting [11]) was 55.5 µM; in series [1] (setting [7]), 55.5 µM; in series [2] (setting [8]) it was 4.45 µM; in series [2] (setting [9]), 4.45 µM; in series [3] (setting [12]), 6.8 µM; in series [3] (setting [10]), 6.8 µM. Moreover, the 50% inhibitory concentration (IC50) in series [4] (setting [11]) came out at 2.27 µM; in series [4] (setting [7]), 2.27 µM; in series [5] it was 320 µM.
On to `COc1c(OCCC(C)C)cc2c(c1C=O)CC(O)OC2=O` (centres unmarked) [Compound 58, 3-Hydroxy-7-(isopentyloxy)-6-methoxy-1-oxoisochromane-5-carbaldehyde], for which the IC50 was found to be 51.9 µM in series [1] (setting [11]); 51.9 µM in series [1] (setting [7]); 2.82 µM in series [2] (setting [8]); 2.82 µM in series [2] (setting [9]); 3.87 µM in series [3] (setting [12]); 3.87 µM in series [3] (setting [10]). Besides, the results for the IC50 in series [4] (setting [11]), in series [4] (setting [7]) and in series [5] were 2.76 µM, 2.76 µM and 121 µM, respectively.
With `COc1c(OCC=C(C)C)cc2c(c1C=O)CC(O)OC2=O` (centres unmarked) [Compound 59, 3-Hydroxy-6-methoxy-7-(3-methyl-but-2-enyloxy)-1-oxo-isochroman-5-carbaldehyde], the IC50 in series [1] (setting [11]) was determined as 17.8 µM; in series [1] (setting [7]), 17.8 µM; in series [2] (setting [8]), 3.21 µM; in series [2] (setting [9]), 3.21 µM; in series [3] (setting [12]), 2.46 µM; in series [3] (setting [10]), 2.46 µM. Further, the IC50 in series [4] (setting [11]) is 1.8 µM; in series [4] (setting [7]), 1.8 µM; in series [5], > 100 µM.
For `COc1c(OCC2CCC2)cc2c(c1C=O)CC(O)OC2=O` (centres unmarked) [Compound 65, 7-Cyclobutylmethoxy-3-hydroxy-6-methoxy-1-oxo-isochroman-5-carbaldehyde], the IC50 in series [1] (setting [7]) is 32.7 µM; in series [2] (setting [9]), 2.76 µM; in series [3] (setting [12]), 3.03 µM; in series [3] (setting [10]), 4.52 µM; in series [4] (setting [11]), 3.36 µM; in series [4] (setting [7]), 2.85 µM. In series [5], this molecule came in with an IC50 of 24.1 µM.
On to `COc1c(OCC2CCCC2)cc2c(c1C=O)CC(O)OC2=O` (centres unmarked) [Compound 66, 7-Cyclopentylmethoxy-3-hydroxy-6-methoxy-1-oxo-isochroman-5-carbaldehyde], for which the IC50 in series [1] (setting [11]) stood at 29.3 µM; in series [1] (setting [7]), 29.3 µM; in series [3] (setting [12]) it was 1.72 µM; in series [3] (setting [10]), 1.72 µM; in series [4] (setting [11]) it was 0.61 µM; in series [4] (setting [7]), 0.61 µM. In series [5], the IC50 was found to be 119 µM. In addition, in series [6] (400 or 200 mg/kg gavage), the “death (or euthanasia) prior to day 3” value is reported as “none”. For the same molecule, the “no observed adverse effect level (NOAEL)” value in series [6] (mouse, single dose p.o., based on weight changes, gross pathology, histopathology, cage behaviors) was 200 mg/kg.

As usually defined, the IC50 is the concentration at which inhibition is half-maximal.
